# Experimental data taken from patent US20060069132A1, “Azolecarboxamide herbicides” (priority 2004, published 2006).
# How the values were obtained:
# ducksalad = experiment: Test B flooded paddy test; assay type: in vivo, Heteranthera limosa; conditions: 1000 g ai/ha, scale 0 to 100 (0 no effect, 100 complete control)
# Procedure: (§1) At the same time, plants selected from these crop and weed species and also blackgrass (Alopecurus myosuroides Huds.), wheat (Triticum aestivum L.) and wild oat (Avena fatua L.) were treated with postemergence applications of test chemicals formulated in the same manner. Plants ranged in height from 2 to 18 cm (1- to 4-leaf stage) for postemergence treatments. Plant species in the flooded paddy test consisted of rice (Oryza sativa L.), small flower umbrella sedge (Cyperus difformis L.), ducksalad (Heteranthera limosa (Sw.) Willd.) and barnyardgrass (Echinochloa crus-galli (L.) Beauv.) grown to the 2-leaf stage for testing. Treated plants and controls were maintained in a greenhouse for 13 to 15 days, after which time all species were compared to controls and visually evaluated. Plant response ratings, summarized in Table B, are based on a scale of 0 to 100 where 0 is no effect and 100 is complete control. A dash (-) response means no test result.
# large crabgrass = experiment: Test B pre-/postemergence herbicide test; assay type: in vivo, Digitaria sanguinalis; conditions: for Plant response rating (0 to 100 scale), Crabgrass, Large: 0 is no effect, 100 is complete control, preemergence
# Text: (§2) Seeds selected from barnyardgrass (Echinochloa crus-galli (L.) Beauv.), Surinam grass (Urochloa decumbens (Staph) R. D. Webster, previously named Brachiaria decumbens Stapf), cocklebur (Xanthium strumarium L.), corn (Zea mays L.), large crabgrass (Digitaria sanguinalis (L.) Scop.), giant foxtail (Setaria faberi Herim.), lambsquarters (Chenopodium album L.), morningglory (Ipomoea coccinea L.), pigweed (Amaranthus retroflexus L.), rice (Oryza sativa L.) and velvetleaf (Abutilon theophrasti Medik.) were planted and treated preemergence with test chemicals formulated in a non-phytotoxic solvent mixture which included a surfactant.
# as §1
# pigweed = experiment: Test B pre-/postemergence herbicide test; assay type: in vivo, Amaranthus retroflexus; conditions: for Plant response rating (0 to 100 scale), Pigweed: 0 is no effect, 100 is complete control, preemergence
# Text: as §2, §1
# giant foxtail = experiment: Test B pre-/postemergence herbicide test; assay type: in vivo, Setaria faberi; conditions: for Plant response rating (0 to 100 scale), Foxtail, Giant: 0 is no effect, 100 is complete control, preemergence
# Text: as §2, §1
# barnyardgrass [1] = experiment: Test B flooded paddy test; assay type: in vivo, Echinochloa crus-galli; conditions: scale 0 to 100 (0 no effect, 100 complete control)
# Procedure: as §1
# [2] = system: small flower umbrella sedge; experiment: Test B flooded paddy test; assay type: in vivo, Cyperus difformis; conditions: scale 0 to 100 (0 no effect, 100 complete control)
# Procedure: as §1
# barnyardgrass [3] = experiment: Test B pre-/postemergence herbicide test; assay type: in vivo, Echinochloa crus-galli; conditions: for Plant response rating (0 to 100 scale), Barnyardgrass: 0 is no effect, 100 is complete control, preemergence; for Barnyardgrass plant response rating: scale 0 (no effect) to 100 (complete control)
# Text: as §2, §1
# lambsquarters = experiment: Test B pre-/postemergence herbicide test; assay type: in vivo, Chenopodium album; conditions: for Plant response rating (0 to 100 scale), Lambsquarters: 0 is no effect, 100 is complete control, preemergence
# Text: as §2, §1
# morningglory = experiment: Test B pre-/postemergence herbicide test; assay type: in vivo, Ipomoea coccinea; conditions: for Plant response rating (0 to 100 scale), Morningglory: 0 is no effect, 100 is complete control, preemergence
# Text: as §2, §1
# corn = experiment: Test B pre-/postemergence herbicide test; assay type: in vivo, Zea mays; conditions: for Plant response rating (0 to 100 scale), Corn: 0 is no effect, 100 is complete control, preemergence
# Text: as §2, §1
# rice = experiment: Test B flooded paddy test; assay type: in vivo, Oryza sativa; conditions: scale 0 to 100 (0 no effect, 100 complete control)
# Procedure: as §1
# wheat = experiment: Test B postemergence herbicide test; assay type: in vivo, Triticum aestivum; parameters: key to Wheat plant response rating: 0 = no effect, 100 = complete control
# Procedure: as §1
# Surinam grass = experiment: Test B pre-/postemergence herbicide test; assay type: in vivo, Urochloa decumbens; conditions: for Plant response rating (0 to 100 scale), Surinam Grass: 0 is no effect, 100 is complete control, preemergence
# Text: as §2, §1
# cocklebur = experiment: Test B pre-/postemergence herbicide test; assay type: in vivo, Xanthium strumarium; conditions: for Plant response rating (0 to 100 scale), Cocklebur: 0 is no effect, 100 is complete control, preemergence
# Text: as §2, §1
# wild oat = experiment: Test B postemergence herbicide test; assay type: in vivo, Avena fatua
# Procedure: as §1
# velvetleaf = experiment: Test B pre-/postemergence herbicide test; assay type: in vivo, Abutilon theophrasti; conditions: for Plant response rating (0 to 100 scale), Velvetleaf: 0 is no effect, 100 is complete control, preemergence
# Text: as §2, §1
# blackgrass = experiment: Test B postemergence herbicide test; assay type: in vivo, Alopecurus myosuroides
# Procedure: as §1
# [4] = 125 g ai/ha, visual rating, scale 0 (no effect) to 100 (complete control), postemergence
# [5] = Postemergence, 500 g ai/ha, scale 0 (no effect) to 100 (complete control)
# [6] = 500 g ai/ha, scale 0 to 100, 0 no effect, 100 complete control, preemergence
# [7] = postemergence, 125 g ai/ha, scale 0 to 100
compound,measurement,setting,value
Cc1nn(C(C)C)nc1C(=O)Nc1cc(C(=O)N(C)C)ccc1F [Compound 400],Ducksalad plant response rating,ducksalad,20
same,"Plant response rating (0 to 100 scale), Crabgrass, Large",large crabgrass; 125 g ai/ha,0
same,"Crabgrass, Large plant response rating",large crabgrass; [4],0
same,"Crabgrass, Large plant response rating",large crabgrass; [5],0
same,"Plant response rating (0 to 100 scale), Pigweed",pigweed; 125 g ai/ha,0
same,Pigweed plant response rating,pigweed; [4],0
same,Pigweed plant response rating,pigweed; [5],20
same,"Plant response rating (0 to 100 scale), Foxtail, Giant",giant foxtail; 125 g ai/ha,0
same,"Foxtail, Giant plant response rating",giant foxtail; [4],0
same,"Foxtail, Giant plant response rating",giant foxtail; [5],0
same,Barnyardgrass plant response rating,barnyardgrass [1]; 1000 g ai/ha,0
same,"Sedge, Umbrella plant response rating",[2]; 1000 g ai/ha,80
same,"Plant response rating (0 to 100 scale), Barnyardgrass",barnyardgrass [3]; 125 g ai/ha,0
same,Barnyardgrass plant response rating,"barnyardgrass [3]; 125 g ai/ha, visual rating, postemergence",0
same,Barnyardgrass plant response rating,"barnyardgrass [3]; Postemergence, 500 g ai/ha",0
same,"Plant response rating (0 to 100 scale), Lambsquarters",lambsquarters; 125 g ai/ha,0
same,Lambsquarters plant response rating,lambsquarters; [4],0
same,Lambsquarters plant response rating,lambsquarters; [5],10
same,"Plant response rating (0 to 100 scale), Morningglory",morningglory; 125 g ai/ha,0
same,Morningglory plant response rating,morningglory; [4],0
same,Morningglory plant response rating,morningglory; [5],0
same,"Plant response rating (0 to 100 scale), Corn",corn; 125 g ai/ha,0
same,Corn plant response rating,corn; [4],0
same,Corn plant response rating,corn; [5],0
same,Rice plant response rating,rice; 1000 g ai/ha,0
same,Wheat plant response rating,wheat; [4],0
same,Wheat plant response rating,wheat; [6],0
same,Wheat plant response rating,wheat; [5],0
same,"Plant response rating (0 to 100 scale), Surinam Grass",Surinam grass; 125 g ai/ha,0
same,Surinam Grass plant response rating,Surinam grass; [4],0
same,Surinam Grass plant response rating,Surinam grass; [5],0
same,"Plant response rating (0 to 100 scale), Cocklebur",cocklebur; 125 g ai/ha,0
same,Cocklebur plant response rating,cocklebur; [4],0
same,Cocklebur plant response rating,cocklebur; [5],0
same,"Oat, Wild plant response rating",wild oat; [4],0
same,"Oat, Wild plant response rating",wild oat; [5],0
same,"Plant response rating (0 to 100 scale), Velvetleaf",velvetleaf; 125 g ai/ha,0
same,Velvetleaf plant response rating,velvetleaf; [4],0
same,Velvetleaf plant response rating,velvetleaf; [5],30
same,Blackgrass plant response rating,blackgrass; [4],0
same,Blackgrass plant response rating,blackgrass; [5],0
CCN(CC)C(=O)c1ccnc(NC(=O)c2nn(C(C)(C)C)nc2C)c1 [Compound 425],Ducksalad plant response rating,ducksalad,70
same,"Plant response rating (0 to 100 scale), Crabgrass, Large",large crabgrass; 125 g ai/ha,80
same,"Crabgrass, Large plant response rating",large crabgrass; [5],30
same,"Crabgrass, Large plant response rating",large crabgrass; [7],20
same,"Plant response rating (0 to 100 scale), Pigweed",pigweed; 125 g ai/ha,70
same,Pigweed plant response rating,pigweed; [5],70
same,Pigweed plant response rating,pigweed; [7],50
same,"Plant response rating (0 to 100 scale), Foxtail, Giant",giant foxtail; 125 g ai/ha,20
same,"Foxtail, Giant plant response rating",giant foxtail; [5],30
same,"Foxtail, Giant plant response rating",giant foxtail; [7],20
same,Barnyardgrass plant response rating,barnyardgrass [1]; 1000 g ai/ha,30
same,"Sedge, Umbrella plant response rating",[2]; 1000 g ai/ha,70
same,"Plant response rating (0 to 100 scale), Barnyardgrass",barnyardgrass [3]; 125 g ai/ha,10
same,Barnyardgrass plant response rating,"barnyardgrass [3]; Postemergence, 125 g ai/ha",10
same,Barnyardgrass plant response rating,"barnyardgrass [3]; Postemergence, 500 g ai/ha",20
same,"Plant response rating (0 to 100 scale), Lambsquarters",lambsquarters; 125 g ai/ha,80
same,Lambsquarters plant response rating,lambsquarters; [5],70
same,Lambsquarters plant response rating,lambsquarters; [7],60
same,"Plant response rating (0 to 100 scale), Morningglory",morningglory; 125 g ai/ha,0
same,Morningglory plant response rating,morningglory; [5],80
same,Morningglory plant response rating,morningglory; [7],70
same,"Plant response rating (0 to 100 scale), Corn",corn; 125 g ai/ha,0
same,Corn plant response rating,corn; [5],20
same,Corn plant response rating,corn; [7],10
same,Rice plant response rating,rice; 1000 g ai/ha,20
same,Wheat plant response rating,wheat; [6],30
same,Wheat plant response rating,wheat; [5],0
same,Wheat plant response rating,wheat; [7],0
same,"Plant response rating (0 to 100 scale), Surinam Grass",Surinam grass; 125 g ai/ha,40
same,Surinam Grass plant response rating,Surinam grass; [5],20
same,Surinam Grass plant response rating,Surinam grass; [7],10
same,"Plant response rating (0 to 100 scale), Cocklebur",cocklebur; 125 g ai/ha,0
same,Cocklebur plant response rating,cocklebur; [5],20
same,Cocklebur plant response rating,cocklebur; [7],10
same,"Oat, Wild plant response rating",wild oat; [5],0
same,"Oat, Wild plant response rating",wild oat; [7],0
same,"Plant response rating (0 to 100 scale), Velvetleaf",velvetleaf; 125 g ai/ha,20
same,Velvetleaf plant response rating,velvetleaf; [5],30
same,Velvetleaf plant response rating,velvetleaf; [7],20
same,Blackgrass plant response rating,blackgrass; [5],20
same,Blackgrass plant response rating,blackgrass; [7],0
CCN(CC)C(=O)c1cccc(NC(=O)c2nn(C(C)(C)C)nc2C)n1 [Compound 440],"Crabgrass, Large plant response rating",large crabgrass; [5],10
same,"Crabgrass, Large plant response rating",large crabgrass; [7],0
same,Pigweed plant response rating,pigweed; [5],10
same,Pigweed plant response rating,pigweed; [7],0
same,"Foxtail, Giant plant response rating",giant foxtail; [5],0
same,"Foxtail, Giant plant response rating",giant foxtail; [7],0
same,Barnyardgrass plant response rating,barnyardgrass [1]; 125 g ai/ha,0
same,"Sedge, Umbrella plant response rating",[2]; 125 g ai/ha,0
same,Barnyardgrass plant response rating,"barnyardgrass [3]; Postemergence, 125 g ai/ha",0
same,Barnyardgrass plant response rating,"barnyardgrass [3]; Postemergence, 500 g ai/ha",0
same,Lambsquarters plant response rating,lambsquarters; [5],10
same,Lambsquarters plant response rating,lambsquarters; [7],0
same,Morningglory plant response rating,morningglory; [5],20
same,Morningglory plant response rating,morningglory; [7],0
same,Corn plant response rating,corn; [5],20
same,Corn plant response rating,corn; [7],0
same,Rice plant response rating,rice; 125 g ai/ha,0
same,Wheat plant response rating,wheat; [6],0
same,Wheat plant response rating,wheat; [5],0
same,Wheat plant response rating,wheat; [7],0
same,Surinam Grass plant response rating,Surinam grass; [5],10
same,Surinam Grass plant response rating,Surinam grass; [7],0
same,Cocklebur plant response rating,cocklebur; [5],0
same,Cocklebur plant response rating,cocklebur; [7],0
same,"Oat, Wild plant response rating",wild oat; [5],30
same,"Oat, Wild plant response rating",wild oat; [7],20
same,Velvetleaf plant response rating,velvetleaf; [5],0
same,Velvetleaf plant response rating,velvetleaf; [7],0
same,Blackgrass plant response rating,blackgrass; [5],20
same,Blackgrass plant response rating,blackgrass; [7],20
